Results reported in patent US20240150277A1, “Covalent PPARG inverse-agonists” (Bayer Aktiengesellschaft, priority 2022, published 2024).
Like-named read-outs stand apart in the source and are kept apart here.

Tests used:
PPARG receptors = molecular target: T1, PPARG receptors (Homo sapiens, UniProt P37231); experiment: RT-112-FABP4-NLuc Reporter Gene Assay (inverse agonism); assay type: cell-based; details: incubated over night; for IC50 / PPARG_RT-112_FABP4_NLuc_inverse agonist Efficacy - [%]: bladder cancer cell line RT-112/84, NanoLuc in FABP4 3′ UTR; for IC50: 50 μM to 0.03 nM; for Emax: RT112/84, read-out: PPARG_RT-112_FABP4_NLuc_inverse agonist Efficacy - [%], bladder cancer cell line RT-112/84, NanoLuc in FABP4 3′ UTR
T1 construct: leading to PPARG dependent expression of the NanoLuc@ Luciferase; endogenous in cells
T1 sequence (P37231 1-505): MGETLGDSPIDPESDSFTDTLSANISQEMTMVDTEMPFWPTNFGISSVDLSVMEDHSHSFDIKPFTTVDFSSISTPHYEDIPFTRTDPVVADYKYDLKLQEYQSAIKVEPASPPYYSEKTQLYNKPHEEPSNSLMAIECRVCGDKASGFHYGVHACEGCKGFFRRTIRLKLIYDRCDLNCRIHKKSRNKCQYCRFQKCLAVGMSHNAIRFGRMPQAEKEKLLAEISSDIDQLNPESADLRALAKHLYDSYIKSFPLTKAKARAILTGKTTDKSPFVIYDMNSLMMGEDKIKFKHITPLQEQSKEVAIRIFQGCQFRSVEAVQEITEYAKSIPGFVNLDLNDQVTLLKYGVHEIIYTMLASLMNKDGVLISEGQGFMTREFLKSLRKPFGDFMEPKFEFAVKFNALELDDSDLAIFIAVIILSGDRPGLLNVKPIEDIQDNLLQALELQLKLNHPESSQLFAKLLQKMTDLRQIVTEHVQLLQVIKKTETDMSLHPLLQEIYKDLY
Procedure: Inverse agonists reduce the basal expression of the Luciferase resulting in a decrease of the Luciferase signal after addition of substrate and cell lysis. To exclude toxic effects of the compounds a parallel measurement of cell viability was performed based on the CellTiter Glo Assay (Promega).
On the next day 10 μl of test compounds dissolved in DMEM/F12 2% FBS and 0,01% BSA are placed in the wells of the microtiter plates. Final concentrations ranged from 50 μM to 0.03 nM. […] On the next day the NanoLuc Luciferase activity was measured by addition of 40 μl of NanoLuc substrate and lysis buffer (Promega, Madison, Wisconsin) diluted in 2 mM Ca-tyrode buffer (20 mM HEPES, 130 mM NaCl, 5 mM KCl, 5 mM NaHCO3, 2 mM MgCl2, pH 7,4). The resulting light signal was measured for 60 seconds in a luminometer. Every sample was tested in quadruples and mean values were used to calculate the IC50 values and efficacies of the compounds.

UMUC9 cells = experiment: Proliferation UMUC9 H2B-GFP assay (Incucyte); assay type: cell-based; details: 7 days of treatment; for Emax: UM-UC-9, 168 h; for IC50: Day 1 subtracted, percentage of DMSO control
Procedure: Proliferation UMUC9 H2B-GFP assay
Instrument: Incucyte® (Sartorius).
Description: Incucyte® Proliferation Assay measures cell proliferation based on nuclei count using live-cell time-lapse imaging. […] Measurements were performed on the day of treatment (Day 1 reading) and after 7 days of treatment (Day 8 reading). Green fluorescence in cell nuclei is measured using the instrument (Image Channels: Phase, Green; Acquisition time: 300 ms; Magnification: 4×).
Analysis: Selected metrics for analysis: Phase Object Confluence (Percent), Nuclei Count (1/Well) and Total Nuclei Area (μm^2/Well). Day 1 measurements were subtracted from each Day 8 measurement and expressed as percentage of the vehicle (DMSO) control. Percentage proliferation values were then plotted against compound concentration using GraphPad PRISM software. The Sigmoidal 4PL X is log (concentration) model of […] was used. Relative IC50 values and % efficacy (span) is reported below.

[1] = PPARG_RT-112_FABP4_NLuc_inverse agonist IC50 - [mol/l]
[2] = relative IC50, read-out: UM-UC-9 GFP proliferation IC50 -

SMILES	IC50 (PPARG receptors; [1])	Emax (PPARG receptors)	Emax (UMUC9 cells; % efficacy (span))	IC50 (UMUC9 cells; UM-UC-9, relative IC50)	UM-UC-9 GFP proliferation Efficacy - [%] (UMUC9 cells; % efficacy (span))	IC50 (UMUC9 cells; [2])	IC50 (PPARG receptors; read-out: PPARG_RT-112_FABP4_NLuc_inverse agonist IC50 - [mol/l])	PPARG_RT-112_FABP4_NLuc_inverse agonist Efficacy - [%] (PPARG receptors)
O=C(NCc1ccc(F)c(F)c1)c1cc(C(=O)Nc2ccc(N3CCOCC3)cc2)c(Cl)cc1F [Example 35, 4-chloro-N^1-(3,4-difluorobenzyl)-6-fluoro-N^3-(4-morpholinophenyl)isophthalamide]	21.5 nM	102%	92.3%	182 nM	–	–	–	–
Cc1cc(N2CCCC(O)C2)ccc1NC(=O)c1cc(C(=O)NCc2ccc(F)c(F)c2)c(F)cc1Cl (stereo not drawn) [Example 11, 4-chloro-N^1-[(3,4-difluorophenyl)methyl]-6-fluoro-N^3-{4-[3-hydroxypiperidin-1-yl]-2-methylphenyl}benzene-1,3-dicarboxamide]	4.2 nM	103%	104%	8.23 nM	–	–	–	–
Cc1ccccc1NC(=O)c1cc(C(=O)NCc2ccccc2)cc(Cl)c1Br [Example 50, N^1-benzyl-4-bromo-5-chloro-N^3-(2-methylphenyl)benzene-1,3-dicarboxamide]	0.45 nM	108%	50.8%	5.06 nM	–	–	–	–
Cc1cc(N2CCCC(O)C2)ccc1NC(=O)c1cc(C(=O)NCc2ccc(F)c(F)c2)c(F)cc1Cl (single isomer, unassigned) [Example 5, 4-chloro-N′-[(3,4-difluorophenyl)methyl]-6-fluoro-N^3-{4-[3-hydroxypiperidin-1-yl]-2-methylphenyl}benzene-1,3-dicarboxamide]	1.27 nM	116%	–	–	78.67%	5.38 nM	–	–
COc1ccccc1CNC(=O)c1cc(Cl)c(Cl)c(C(=O)Nc2ccccc2)c1 [Example 15, 4,5-dichloro-N-[(2-methoxyphenyl)methyl]-N^3-phenylbenzene-_,3-dicarboxamide]	0.52 nM	70.7%	60.6%	7.96 nM	–	–	–	–
Cc1cccc(-c2nc3cc(NC(=O)c4cc(C(=O)NCc5ccc(F)c(F)c5)c(F)cc4Cl)ccc3o2)c1 [Example 39, 4-chloro-N^1-(3,4-difluorobenzyl)-6-fluoro-N^3-(2-(m-tolyl)benzo[d]oxazol-5-yl)isophthalamide]	–	95.5%	88.7%	34.2 nM	–	–	6.55 nM	–
Cc1cc(OC(F)F)ccc1NC(=O)c1cc(C(=O)NCc2ccccc2O)c(F)cc1Cl [Example 1, 4-chloro-N^3-[4-(difluoromethoxy)-2-methylphenyl]-6-fluoro-N′-[(2-hydroxyphenyl)methyl]benzene-1,3-dicarboxamide]	3.8 nM	83.5%	51.4%	2.89 nM	–	–	–	–
C#Cc1cc(F)c(C(=O)NCc2ccc(F)c(F)c2)cc1C(=O)Nc1ccccc1 [Example 40, N^1-(3,4-difluorobenzyl)-4-ethynyl-6-fluoro-N^3-phenylisophthalamide]	1600 nM	114%	72.1%	391 nM	–	–	–	–
CCCOCc1cc(F)ccc1CNC(=O)c1cc(C(=O)Nc2ccc(C(F)(F)F)cc2C)c(Cl)cc1F [Example 4, 4-chloro-6-fluoro-N^1-{[4-fluoro-2-(propoxymethyl)phenyl]methyl}-N^3-[2-methyl-4-(trifluoromethyl)phenyl]benzene-1,3-dicarboxamide]	8.35 nM	87%	138%	3.22 nM	–	–	–	–
O=C(NCc1ccc(F)c(F)c1)c1cc(C(=O)Nc2ccc(OC(F)F)cc2)c(Cl)cc1F [Example 3, 4-chloro-N^3-[4-(difluoromethoxy)phenyl]-N^1-[(3,4-difluorophenyl)methyl]-6-fluorobenzene-1,3-dicarboxamide]	3.15 nM	90.5%	–	> 6000 nM	–	–	–	–
Cc1cc(N2CCCC(O)C2)ccc1NC(=O)c1cc(C(=O)NCc2ccc(F)c(F)c2)c(F)cc1Cl (single isomer, unassigned) [Example 6, 4-chloro-N′-[(3,4-difluorophenyl)methyl]-6-fluoro-N^3-{4-[3-hydroxypiperidin-1-yl]-2-methylphenyl}benzene-1,3-dicarboxamide]	4.1 nM	–	79.5%	–	–	21.7 nM	–	134.50%
Cc1cc(OCCO)ccc1NC(=O)c1cc(C(=O)NCc2ccc(F)c(F)c2)cc(Cl)c1Cl [Example 8, 4,5-dichloro-N^1-[(3,4-difluorophenyl)methyl]-N^3-[4-(2-hydroxyethoxy)-2-methylphenyl]benzene-1,3-dicarboxamide]	0.9 nM	96%	71.5%	32.2 nM	–	–	–	–
O=C(NCc1ccc(F)cc1)c1cc(C(=O)Nc2ccc(Oc3ccccc3)cn2)c(Cl)cc1F [Example 21, 4-chloro-6-fluoro-N^1-[(4-fluorophenyl)methyl]-N^3-(5-phenoxypyridin-2-yl)benzene-1,3-dicarboxamide]	1.48 nM	142%	56.1%	10.6 nM	–	–	–	–
O=C(NCc1ccc(F)c(F)c1)c1cc(Cl)c(Cl)c(C(=O)Nc2cnccn2)c1 [Example 42, 4,5-dichloro-N^1-(3,4-difluorobenzyl)-N^3-(pyrazin-2-yl)isophthalamide]	4.7 nM	102%	68.6%	1.94 nM	–	–	–	–
Cc1noc(-c2ccc(NC(=O)c3cc(C(=O)NCc4ccc(F)cc4)c(F)cc3Cl)cc2)n1 [Example 23, 4-chloro-6-fluoro-N^1-[(4-fluorophenyl)methyl]-N^3-[4-(3-methyl-1,2,4-oxadiazol-5-yl)phenyl]benzene-1,3-dicarboxamide]	0.815 nM	148%	54%	3.77 nM	–	–	–	–
Cc1cc(OC(F)F)ccc1NC(=O)c1cc(C(=O)NC(CO)c2ccc(F)cc2)c(F)cc1Cl (stereo not drawn) [Example 2, 4-chloro-N^3-[4-(difluoromethoxy)-2-methylphenyl]-6-fluoro-N^1-[1-(4-fluorophenyl)-2-hydroxyethyl]benzene-1,3-dicarboxamide]	33 nM	110%	72.7%	204 nM	–	–	–	–
O=C(NCc1ccc(F)c(F)c1)c1cc(Cl)c(Cl)c(C(=O)Nc2ccc(C3CC3)cn2)c1 [Example 14, 4,5-dichloro-N^3-(5-cyclopropylpyridin-2-yl)-N^1-[(3,4-difluorophenyl)methyl]benzene-1,3-dicarboxamide]	0.42 nM	82.5%	85%	1570 nM	–	–	–	–
Cc1cc(C(F)(F)F)ccc1NC(=O)c1cc(C(=O)NC(CO)c2ccccc2)c(F)cc1Cl (single isomer, unassigned) [Example 30, 4-chloro-6-fluoro-N^1-[(1R*)-2-hydroxy-1-phenylethyl]-N^3-[2-methyl-4-(trifluoromethyl)phenyl]benzene-1,3-dicarboxamide]	17.5 nM	–	49.6%	66.1 nM	–	–	–	105.50%
O=C(NCc1ccc(F)c(F)c1)c1cc(C(=O)Nc2cnc(Oc3ccccc3)cn2)c(Cl)cc1F [Example 36, 4-chloro-N^1-(3,4-difluorobenzyl)-6-fluoro-N^3-(5-phenoxypyrazin-2-yl)isophthalamide]	1.26 nM	97.5%	66%	5.98 nM	–	–	–	–
